How the values were obtained:
Assay type in all cases: cell-based, human
[1] = system: cyclin B1 and p34-cdc2 kinase; assay: Immunoblot of cyclins, cyclin-associated kinases, inhibitors, p53; settings: M1619
Method: The effect of antioxidants on expression of cell cyclins, cyclin-associated kinases, cell cycle inhibitors and IκBα was studied by incubating near confluent cell cultures with antioxidant treatments for 15 min-48 hours. Cells were lysed and protein levels were measured by immunoblot assay as described below. In other experiments, the ratio of phosphorylated-IκBα to total IκBα was determined by harvest of cytosolic protein 24 hours after treating cultures with 3,000 U/ml catalase.
Immunoassay for Proteins. Cells were lysed and proteins were isolated and quantitated by immunoassay as previously detailed, using 2 μg/ml of primary rabbit polyclonal antibodies against human p53, the cyclins D1, E, A and B1, the cyclin-associated kinases cdk2 and cdc2, the cyclin kinase inhibitors p21^WAF1/Cip1 and p27, and peroxidase-labeled donkey polyclonal anti-rabbit IgG. […] Cells were placed on ice, washed twice with cold DPBS, scraped into 0.5 ml boiling buffer (10% [vol/vol] glycerol and 2% [wt/vol] sodium dodecyl sulfate [SDS] in 83 mM Tris, pH 6.8) and sheared by four passages through a pipette. Aliquots were removed for protein determination, using the BCA protein assay (Pierce). […] Immunoblots were rinsed again as above and detected using an enhanced chemiluminescence method (ECL Western blotting detection system, Amersham Life Science, Buckinghamshire, England) and autoradiography. […]

NF-κB [2] = assay: EMSA of constitutive nuclear NF-κB DNA binding, MDA-MB-453; settings: MDA-MB-453 breast carcinoma; catalase 3,000 U/ml for 24 hours
Method: (§1) The effect of antioxidants on nuclear activation of NF-κB was studied by incubating near confluent (70%) cell cultures with antioxidant treatments for 1-48 hours. Nuclear protein was harvested, and EMSAs were performed using DNA consensus binding sequences, or nuclear translocation of the p65 component of NF-κB was studied by immunoperoxidase staining, as outlined below.
(§2) Electrophoretic Mobility Shift Assays (EMSAs). Nuclear protein was isolated and DNA binding reactions were performed as previously described in detail, Kennedy et al., Am. J. Respir. Cell Mol. Biol. 19:366-378 (1998). Monolayers were washed twice in cold DPBS and equilibrated 10 min on ice with 0.7 ml cold cytoplasmic extraction buffer, CEB (10 mM Tris, pH 7.9, 60 mM KCl, 1 mM EDTA, 1 mM DTT) with protease inhibitors, PI (1 mM Pefabloc, 50 μg/ml antipain, 1 μg/ml leupeptin, 1 μg/ml pepstatin, 40 μg/ml bestatin, 3 μg/ml E-64 and 100 μg/ml chymostatin). […] DNA-protein binding reactions were performed with 2 μg of nuclear protein (as determined by the Pierce method) and 30-80,000 cpm of ^32P-end-labelled double-stranded DNA probe in 10 mM Tris-HCl, pH 7.5, 50 mM NaCl, 0.5 mM EDTA, 0.5 mM DTT, 1 mM MgCl2, 50 μg/ml poly dI-dC, and 4% glycerol. […] Gels were dried and analyzed by autoradiography at −80° C. using an image intensifier screen. […]

NF-κB [3] = assay: EMSA of constitutive nuclear NF-κB DNA binding, M1585; settings: M1585 melanoma; catalase 3,000 U/ml for 24 hours
Method: as §1, §2

Substance: Catalase
- expression of cyclin B1 and its associated kinase p34-cdc2 ([1]; 3,000 U/ml catalase): significant decrease
- protein levels of cyclins D1, E, A, cdk2, p53, p21WAF1/Cip1, p27 ([1]; catalase-treated vs controls, data not shown): did not decrease
- constitutive nuclear DNA binding activity for NF-κB (NF-κB [2]): suppressed
- constitutive nuclear DNA binding activity for NF-κB (NF-κB [3]): suppressed

From patent publication US20070142462A1, “Method of Treating Cancer” (The University of Utah, priority 2000, published 2007)
